The format of the assay is in vivo, male Swiss albino mice. Particulars: for Analgesic (agonist) activity, in words: phenylquinone writhing, mice; for Analgesic action, inhibition action on phenylquinone writhing: dose giving 50 % inhibition / Analgesic action, inhibition action on phenylquinone writhing, % inhibition: subcutaneous; for Analgesic action, inhibition action on phenylquinone writhing: dose giving 50 % inhibition: 30 min before phenyl-p-benzoquinone, dose with 50 % inhibition. Here is the method:
The percent change is calculated according to the following equation: % change=100- (no. of writhes in treated group/no. of writhes in control group)×100.

[1] abbreviates: at the dose listed for the substance under E1.

Where two headings read alike, the source gives them in different places.

With `CN1CCCCC1=NS(=O)(=O)c1cccc([N+](=O)[O-])c1` [Compound W-7, 1-Methylpiperidylidene-2-(3-nitrophenyl)sulfonamide], the “Analgesic (agonist) activity, in words” value is on record as “active analgesics, being comparable to morphine sulfate” and the “Analgesic action, inhibition action on phenylquinone writhing: dose giving 50 % inhibition” value (“Analgesic action … dose giving 50 % inhibition” for short) is 0.0028 mg/kg. Besides, the “Analgesic action, inhibition action on phenylquinone writhing, % inhibition” value under setting [1] amounted to 50%.
For `COc1ccc(S(=O)(=O)N=C2CCCCN2C)cc1` [Compound W-4, 1-Methylpiperidylidene-2-(4-methoxyphenyl)sulfonamide], the “Analgesic (agonist) activity, in words” value is “active analgesics, being comparable to morphine sulfate” and the “Analgesic action … dose giving 50 % inhibition” value is on record as 0.002 mg/kg. For the same compound, the “Analgesic action, inhibition action on phenylquinone writhing, % inhibition” value under setting [1] amounted to 50%.
Regarding `Cc1ccc(S(=O)(=O)N=C2CCCCN2C)cc1` [Compound W-5, 1-Methylpiperidylidene-2-(4-methylphenyl)sulfonamide], the “Analgesic action … dose giving 50 % inhibition” value was 2.4 mg/kg. Besides, the “Analgesic action, inhibition action on phenylquinone writhing, % inhibition” value under setting [1] was 50%.
On to `CC(=O)Nc1ccc(S(=O)(=O)N=C2CCCCN2C)cc1` [Compound W-12, 1-Methylpiperidylidene-2-(4-acetamidophenyl)sulfonamide], for which the “Analgesic action … dose giving 50 % inhibition” value was 1.2 mg/kg. For the same compound, the “Analgesic action, inhibition action on phenylquinone writhing, % inhibition” value under setting [1] was determined as 50%.
For `O=[N+]([O-])c1ccc(CCN2CCCCC2=NS(=O)(=O)c2ccc(Cl)cc2)cc1` [Compound W-18, 1-(4-Nitrophenylethyl)piperidylidene-2-(4-chlorophenyl)sulfonamide], the “Analgesic action, inhibition action on phenylquinone writhing, % inhibition” value under setting [1] turned out to be 50%.
With `CC(=O)Oc1ccccc1C(=O)O` [Aspirin (TM), reference compound], the “Analgesic action … dose giving 50 % inhibition” value came to 50.0 mg/kg. Also, under setting [1], the “Analgesic action, inhibition action on phenylquinone writhing, % inhibition” value worked out at 50%.
As to `CN1CCCCC1=NC#N` [Compound W-13, 1-Methylpiperidylidene-2-cyanamide], the “Analgesic action … dose giving 50 % inhibition” value is reported as 6.0 mg/kg. The “Analgesic action, inhibition action on phenylquinone writhing, % inhibition” value under setting [1] came to 50%.
Taken in the same sequence, the figures for `CCC(=O)O[C@](Cc1ccccc1)(c1ccccc1)[C@H](C)CN(C)C` [Dextropropoxyphene (TM), reference compound] were 56.0 mg/kg and 50%.
Consider `CC(C)CN1CCCCC1=NS(=O)(=O)c1ccc(Cl)cc1` [Compound W-29, 1-Isobutylpiperidylidene-2-(4-chlorophenyl)sulfonamide], for which the “Analgesic action … dose giving 50 % inhibition” value came out at 2.0 mg/kg. Moreover, where the note is “dose 2.0 mg/kg (Table 3)”, the “Analgesic action, inhibition action on phenylquinone writhing, % inhibition” value is recorded as 50%.
In the case of `Nc1ccc(S(=O)(=O)N=C2CCCCN2CC2CCC2)cc1` [Compound W-24, 1-Cyclobutylmethylpiperidylidene-2-(4-aminophenyl)sulfonamide], the “Analgesic action, inhibition action on phenylquinone writhing, % inhibition” value (dose 0.20 mg/kg) is recorded as 61%.
As for `CN1CCCCC1=NS(=O)(=O)c1ccc(N)cc1` [Compound W-9, 1-Methylpiperidylidene-2-(4-aminophenyl)sulfonamide], the “Analgesic (agonist) activity, in words” value was “active analgesics, being comparable to morphine sulfate” and the “Analgesic action … dose giving 50 % inhibition” value worked out at 0.007 mg/kg. Also, under setting [1], the “Analgesic action, inhibition action on phenylquinone writhing, % inhibition” value is 50%.
In the case of `Nc1ccc(S(=O)(=O)N=C2CCCCN2CCc2ccccc2)cc1` [Compound W-16, 1-Phenylethylpiperidylidene-2-(4-aminophenyl)sulfonamide], the “Analgesic (agonist) activity, in words” value is listed as “active analgesics, being comparable to morphine sulfate”. Moreover, the “Analgesic action, inhibition action on phenylquinone writhing, % inhibition” value (dose 0.20 mg/kg) is 56%.
For the compound `CN1CCCC(Br)C1=NC#N` (racemic) [Compound 0-1, 3-Bromo-1-methylpiperidylidene-2-cyanamide], the “Analgesic action … dose giving 50 % inhibition” value was 0.7 mg/kg. Moreover, the “Analgesic action, inhibition action on phenylquinone writhing, % inhibition” value under setting [1] came to 50%.
As for `C/C=C/N1CCCCC1=NS(=O)(=O)c1ccc(Cl)cc1` [Compound W-32, E-1-(1-Propenyl)piperidylidene-2-(4-chlorophenyl)sulfonamide], the “Analgesic action … dose giving 50 % inhibition” value came to 0.013 mg/kg. In addition, the “Analgesic action, inhibition action on phenylquinone writhing, % inhibition” value under setting [1] is listed as 50%.
`CN1CCCCC1=NS(=O)(=O)c1ccccc1[N+](=O)[O-]` [Compound W-8, 1-Methylpiperidylidene-2-(2-nitrophenyl)sulfonamide]: the “Analgesic (agonist) activity, in words” value is “active analgesics, being comparable to morphine sulfate” and the “Analgesic action … dose giving 50 % inhibition” value is 0.0018 mg/kg. In addition, the “Analgesic action, inhibition action on phenylquinone writhing, % inhibition” value under setting [1] is 50%.
As to `CN1CCCCC1=NS(=O)(=O)c1ccccc1` [Compound W-2, 1-Methylpiperidylidene-2-benzenesulfonamide], the “Analgesic action … dose giving 50 % inhibition” value was determined as 68.0 mg/kg. Also, the “Analgesic action, inhibition action on phenylquinone writhing, % inhibition” value under setting [1] stood at 50%.
Turning to `CN1CCCCC1=NS(=O)(=O)c1ccccc1N` [Compound W-11, 1-Methylpiperidylidene-2-(2-aminophenyl)sulfonamide], the “Analgesic (agonist) activity, in words” value is listed as “active analgesics, being comparable to morphine sulfate” and the “Analgesic action … dose giving 50 % inhibition” value is recorded as 0.00024 mg/kg. Under setting [1], the “Analgesic action, inhibition action on phenylquinone writhing, % inhibition” value amounted to 50%.
On to `O=S(=O)(N=C1CCCCN1CCc1ccccc1)c1ccc(Cl)cc1` [Compound W-15, 1-Phenylethylpiperidylidene-2-(4-chlorophenyl)sulfonamide], for which the “Analgesic (agonist) activity, in words” value is given as “active analgesics, being comparable to morphine sulfate” and the “Analgesic action … dose giving 50 % inhibition” value is 0.007 mg/kg. For the same compound, the “Analgesic action, inhibition action on phenylquinone writhing, % inhibition” value under setting [1] came out at 50%.
Consider `CN1CCCCC1=NS(C)(=O)=O` [Compound W-1, 1-Methylpiperidylidene-2-methanesulfonamide], for which the “Analgesic action … dose giving 50 % inhibition” value turned out to be 108.0 mg/kg. Moreover, the “Analgesic action, inhibition action on phenylquinone writhing, % inhibition” value under setting [1] is reported as 50%.
For the compound `CCCN1CCCCC1=NS(=O)(=O)c1cccnc1` [Compound W-28, 1-n-Propylpiperidylidene-2-(3-pyridyl)sulfonamide], the “Analgesic action, inhibition action on phenylquinone writhing, % inhibition” value (dose 2.0 mg/kg (Table 3)) stood at 82%.
Regarding `CC(C)CN1CCCCC1=NS(=O)(=O)c1cccnc1` [Compound W-31, 1-Isobutylpiperidylidene-2-(3-pyridyl)sulfonamide], the “Analgesic action, inhibition action on phenylquinone writhing, % inhibition” value (dose 2.0 mg/kg (Table 3)) worked out at 65%.
In the case of `CCCN1CCCCC1=NS(=O)(=O)c1ccc(N)cc1` [Compound W-27, 1-n-Propylpiperidylidene-2-(4-aminophenyl)sulfonamide], for the setting “dose 2.0 mg/kg (Table 3)”, the “Analgesic action, inhibition action on phenylquinone writhing, % inhibition” value is on record as 59%.
With `Nc1ccc(S(=O)(=O)N=C2CCCCN2CC2CC2)cc1` [Compound W-21, 1-Cyclopropylmethylpiperidylidene-2-(4-aminophenyl)sulfonamide], the “Analgesic action, inhibition action on phenylquinone writhing, % inhibition” value (dose 2.0 mg/kg (Table 3)) is 49%.
With `CCCN1CCCCC1=NS(=O)(=O)c1ccc(Cl)cc1` [Compound W-26, 1-n-Propylpiperidylidene-2-(4-chlorophenyl)sulfonamide], the “Analgesic action … dose giving 50 % inhibition” value amounted to 1.4 mg/kg. Under setting [1], the “Analgesic action, inhibition action on phenylquinone writhing, % inhibition” value was 50%.

The values above are taken from patent US4468403A, “Analgesic substituted piperidylidene-2-sulfon(cyan)amide derivatives” (priority 1982, dated 1984).
